{
  "source": "patent US10590132B2",
  "about": "“Selective estrogen receptor down-regulators” (AstraZeneca AB, priority 2017, dated 2020)",
  "data": [
    {"test": "Human plasma protein binding (equilibrium dialysis)", "assay_type": "in vitro ADME", "settings": "dialysis 18 hours", "units": {"Human plasma protein binding (% free)": "% free"}, "procedure": "The automated equilibrium dialysis assay in human plasma uses the RED (Rapid Equilibrium Dialysis) Device and sample handling. The assay generally runs over two to three days including delivery of results. After dialysis for 18 hours, plasma and buffer samples are prepared for analysis by liquid chromatography and mass spectrometry. Samples are generally tested in singlicates and quantified by LC/MSMS by using a 7-point calibration curve in plasma. The compounds are pooled together in plasma pools up to 10 compounds. Three reference compounds are used in each run, Propranolol, Metoprolol and Warfarin. Warfarin is used as a control in each pool and Propranolol and Metoprolol are placed randomly in each run. An in-house Excel macro is used for preparation of files for the robot and the mass spectrometer and is also used for the calculations of fraction unbound (fu %) in plasma.", "values": [
      {"smiles": "Cc1c(OCCN(C)CCCF)ccc(F)c1[C@@H]1c2[nH]c3ccccc3c2C[C@@H](C)N1CCC(=O)O", "note": "[Example 163, 3-((1R,3R)-1-(6-fluoro-3-(2-((3-fluoropropyl)(methyl)amino)ethoxy)-2-methylphenyl)-3-methyl-1,3,4,9-tetrahydro-2H-pyrido[3,4-b]indol-2-yl)propanoic Acid]", "Human plasma protein binding (% free)": 49},
      {"smiles": "CCc1ccc(OCCNCCCF)cc1[C@@H]1c2[nH]c3ccccc3c2C[C@@H](C)N1CC(F)(F)F", "note": "[Example 21, N-(2-(4-ethyl-3-((1R,3R)-3-methyl-2-(2,2,2-trifluoroethyl)-2,3,4,9-tetrahydro-1H-pyrido[3,4-b]indol-1-yl)phenoxy)ethyl)-3-fluoropropan-1-amine]", "Human plasma protein binding (% free)": 0.10},
      {"smiles": "COc1ccc(OCCNCCCF)cc1[C@@H]1c2[nH]c3ccccc3c2C[C@@H](C)N1CC(F)(F)F", "note": "[Example 7, 3-Fluoro-N-(2-(4-methoxy-3-((1R,3R)-3-methyl-2-(2,2,2-trifluoroethyl)-2,3,4,9-tetrahydro-1H-pyrido[3,4-b]indol-1-yl)phenoxy)ethyl)propan-1-amine]", "Human plasma protein binding (% free)": 1.5},
      {"smiles": "Cc1c(NCCNCCCF)ccnc1[C@@H]1c2[nH]c3ccccc3c2C[C@@H](C)N1CC(F)(F)F", "note": "[Example 95, N1-(3-fluoropropyl)-N2-(3-methyl-2-((1S,3R)-3-methyl-2-(2,2,2-trifluoroethyl)-2,3,4,9-tetrahydro-1H-pyrido[3,4-b]indol-1-yl)pyridin-4-yl)ethane-1,2-diamine]", "Human plasma protein binding (% free)": 4.6},
      {"smiles": "C[C@@H]1Cc2c([nH]c3ccc(F)cc23)[C@@H](c2c(F)cnc(OCCNCCCF)c2F)N1CC(F)(F)CO", "note": "[Example 65, 3-((1R,3R)-1-(3,5-difluoro-2-(2-((3-fluoropropyl)amino)ethoxy)pyridin-4-yl)-6-fluoro-3-methyl-1,3,4,9-tetrahydro-2H-pyrido[3,4-b]indol-2-yl)-2,2-difluoropropan-1-ol]", "Human plasma protein binding (% free)": 1.9},
      {"smiles": "C[C@@H]1Cc2c([nH]c3ccccc23)[C@@H](c2ccnc(OCCNCCCF)c2Cl)N1CC(F)(F)CO", "note": "[Example 104, 3-((1R,3R)-1-(3-chloro-2-(2-((3-fluoropropyl)amino)ethoxy)pyridin-4-yl)-3-methyl-1,3,4,9-tetrahydro-2H-pyrido[3,4-b]indol-2-yl)-2,2-difluoropropan-1-ol]", "Human plasma protein binding (% free)": 2.8},
      {"smiles": "C[C@@H]1Cc2c([nH]c3ccccc23)[C@@H](c2cccc(OCCNCCCF)c2C#N)N1CC(F)(F)F", "note": "[Example 69, 2-(2-((3-fluoropropyl)amino)ethoxy)-6-((1R,3R)-3-methyl-2-(2,2,2-trifluoroethyl)-2,3,4,9-tetrahydro-1H-pyrido[3,4-b]indol-1-yl)benzonitrile]", "Human plasma protein binding (% free)": 2.2},
      {"smiles": "Cc1c(OCCNCCCF)cncc1[C@@H]1c2[nH]c3ccccc3c2C[C@@H](C)N1CC(F)(F)F", "note": "[Example 38, 3-fluoro-N-(2-((4-methyl-5-((1R,3R)-3-methyl-2-(2,2,2-trifluoroethyl)-2,3,4,9-tetrahydro-1H-pyrido[3,4-b]indol-1-yl)pyridin-3-yl)oxy)ethyl)propan-1-amine]", "Human plasma protein binding (% free)": 0.91},
      {"smiles": "C[C@@H]1Cc2c([nH]c3ccccc23)[C@@H](c2cc(OCCNCCCF)ccc2C#N)N1CC(F)(F)F", "note": "[Example 23, 4-(2-((3-fluoropropyl)amino)ethoxy)-2-((1R,3R)-3-methyl-2-(2,2,2-trifluoroethyl)-2,3,4,9-tetrahydro-1H-pyrido[3,4-b]indol-1-yl)benzonitrile]", "Human plasma protein binding (% free)": 3.7},
      {"smiles": "Cc1c([C@@H]2c3[nH]c4ccccc4c3C[C@@H](C)N2C[C@@H](C)C(=O)O)ccnc1OCCN(C)CCCF", "note": "[Example 161, (R)-3-((1R,3R)-1-(2-(2-((3-fluoropropyl)(methyl)amino)ethoxy)-3-methylpyridin-4-yl)-3-methyl-1,3,4,9-tetrahydro-2H-pyrido[3,4-b]indol-2-yl)-2-methylpropanoic Acid]", "Human plasma protein binding (% free)": 6.3},
      {"smiles": "Cc1ccc2[nH]c3c(c2c1)C[C@@H](C)N(CC(F)(F)CO)[C@@H]3c1c(F)ccc(OCCNCCCF)c1F", "note": "[Example 63, 3-((1R,3R)-1-(2,6-difluoro-3-(2-((3-fluoropropyl)amino)ethoxy)phenyl)-3,6-dimethyl-1,3,4,9-tetrahydro-2H-pyrido[3,4-b]indol-2-yl)-2,2-difluoropropan-1-ol]", "Human plasma protein binding (% free)": 0.97},
      {"smiles": "C[C@@H]1Cc2c([nH]c3ccccc23)[C@@H](c2cc(OCCNCCCF)ccc2Cl)N1CC(F)(F)F", "note": "[Example 22, N-(2-(4-chloro-3-((1R,3R)-3-methyl-2-(2,2,2-trifluoroethyl)-2,3,4,9-tetrahydro-1H-pyrido[3,4-b]indol-1-yl)phenoxy)ethyl)-3-fluoropropan-1-amine]", "Human plasma protein binding (% free)": 0.61},
      {"smiles": "Cc1c(OCCN(C)CCCF)ncc(F)c1[C@@H]1c2[nH]c3ccccc3c2C[C@@H](C)N1C(C)CC(=O)O", "note": "(single isomer, unassigned) [Example 159]", "Human plasma protein binding (% free)": 13},
      {"smiles": "Cc1c(NCCNCCCF)ccc(F)c1[C@@H]1c2[nH]c3ccccc3c2C[C@@H](C)N1C[C@H](C)C(=O)O", "note": "[Example 135, (S)-3-((1R,3R)-1-(6-fluoro-3-((2-((3-fluoropropyl)amino)ethyl)amino)-2-methylphenyl)-3-methyl-1,3,4,9-tetrahydro-2H-pyrido[3,4-b]indol-2-yl)-2-methylpropanoic acid]", "Human plasma protein binding (% free)": 32},
      {"smiles": "Cc1c(OCCNCCCF)ccc(F)c1[C@@H]1c2[nH]c3ccccc3c2C[C@@H](C)N1CC(F)(F)C(=O)O", "note": "[Example 118, 2,2-difluoro-3-((1R,3R)-1-(6-fluoro-3-(2-((3-fluoropropyl)amino)ethoxy)-2-methylphenyl)-3-methyl-1,3,4,9-tetrahydro-2H-pyrido[3,4-b]indol-2-yl)propanoic acid]", "Human plasma protein binding (% free)": 8.4},
      {"smiles": "Cc1c(OCCNCCCF)ccc(F)c1[C@@H]1c2[nH]c3ccccc3c2C[C@@H](C)N1CCC#N", "note": "[Example 87, 3-((1R,3R)-1-(6-fluoro-3-(2-((3-fluoropropyl)amino)ethoxy)-2-methylphenyl)-3-methyl-1,3,4,9-tetrahydro-2H-pyrido[3,4-b]indol-2-yl)propanenitrile]", "Human plasma protein binding (% free)": 1.6},
      {"smiles": "C[C@@H]1Cc2c([nH]c3ccccc23)[C@@H](c2cncc(OCCNCCCF)c2)N1CC(F)(F)F", "note": "[Example 101, 3-fluoro-N-(2-((5-((1R,3R)-3-methyl-2-(2,2,2-trifluoroethyl)-2,3,4,9-tetrahydro-1H-pyrido[3,4-b]indol-1-yl)pyridin-3-yl)oxy)ethyl)propan-1-amine]", "Human plasma protein binding (% free)": 8.4},
      {"smiles": "C[C@@H]1Cc2c([nH]c3c(F)cccc23)[C@@H](c2c(F)ccc(OCCNCCCF)c2F)N1CC(F)(F)CO", "note": "[Example 60, 3-((1R,3R)-1-(2,6-difluoro-3-(2-((3-fluoropropyl)amino)ethoxy)phenyl)-8-fluoro-3-methyl-1,3,4,9-tetrahydro-2H-pyrido[3,4-b]indol-2-yl)-2,2-difluoropropan-1-ol]", "Human plasma protein binding (% free)": 1.9},
      {"smiles": "C[C@@H]1Cc2c([nH]c3ccccc23)[C@@H](c2cc(F)cc(OCCNCCCF)c2F)N1CC(F)(F)F", "note": "[Example 31, N-(2-(2,5-difluoro-3-((1R,3R)-3-methyl-2-(2,2,2-trifluoroethyl)-2,3,4,9-tetrahydro-1H-pyrido[3,4-b]indol-1-yl)phenoxy)ethyl)-3-fluoropropan-1-amine]", "Human plasma protein binding (% free)": 0.41}
    ]}
  ]
}
